Experiments:
[1] = molecular target: Signal transducer and activator of transcription 3 (Homo sapiens) (UniProt P40763); assay: Inhibition of IL-6 induced STAT3 phosphorylation at Tyr705 residue in human EC109 cells preincubated for 16 hrs followed by IL-6 stimulation for 30 mins by Western blot analysis; assay type: cell-based; details: dose 2.5-20 µM, DDE = dose-dependent effect
HepG2 [2] = assay: Induction of apoptosis in human HepG2 cells assessed as early apoptotic cells at 5 uM incubated for 48 hrs by Annexin V/PI staining based flow cytometry method (reference value: 3.31%); assay type: functional
HepG2 [3] = assay: Induction of apoptosis in human HepG2 cells assessed as necrotic cells at 5 uM incubated for 48 hrs by Annexin V/PI staining based flow cytometry method (reference value: 0.57%); assay type: functional
[4] = Toxicity in BALB/c athymic nude mouse xenografted with human HepG2 cells assessed as effect on body weight at 20 to 40 mg/kg, ip administered daily for 24 days; assay type: organism-based; details: in vivo, 576 h, dose 20-40 mg/kg, time 24 day
ECa-109 cell line [5] = assay: Induction of apoptosis in human EC109 cells assessed as late apoptotic cells at 10 uM incubated for 48 hrs by Annexin V/PI staining based flow cytometry method (reference value: 6.17%); assay type: functional
ECa-109 cell line [6] = assay: Inhibition of cell migration in human EC109 cells incubated for 48 hrs by microscopic analysis based wound healing assay; assay type: functional; details: dose 5-10 µM, DDE = dose-dependent effect
ECa-109 cell line [7] = assay: Induction of apoptosis in human EC109 cells assessed as viable cells at 20 uM incubated for 48 hrs by Annexin V/PI staining based flow cytometry method (reference value: 91.7%); assay type: functional; details: read-out: Activity
HepG2 [8] = assay: Induction of apoptosis in human HepG2 cells assessed as viable cells at 10 uM incubated for 48 hrs by Annexin V/PI staining based flow cytometry method (reference value: 92.5%); assay type: functional; details: read-out: Activity
ECa-109 cell line [9] = assay: Induction of apoptosis in human EC109 cells assessed as early apoptotic cells at 20 uM incubated for 48 hrs by Annexin V/PI staining based flow cytometry method (reference value: 1.36%); assay type: functional
[10] = molecular target: Signal transducer and activator of transcription 3 (Homo sapiens) (UniProt P40763); assay: Inhibition of STAT3 phosphorylation at Y705 residue in human EC109 cells measured after 16 hrs by Western blotting analysis; assay type: cell-based; details: dose 2.5-20 µM, DDE = dose-dependent effect
[11] = molecular target: Signal transducer and activator of transcription 3 (Homo sapiens) (UniProt P40763); assay: Inhibition of IL-6 induced STAT3 phosphorylation at Tyr705 residue in human HepG2 cells preincubated for 16 hrs followed by IL-6 stimulation for 30 mins by Western blot analysis; assay type: cell-based; details: dose 2.5-20 µM, DDE = dose-dependent effect
ECa-109 cell line [12] = assay: Induction of apoptosis in human EC109 cells assessed as early apoptotic cells at 5 uM incubated for 48 hrs by Annexin V/PI staining based flow cytometry method (reference value: 1.36%); assay type: functional
HepG2 [13] = assay: Induction of apoptosis in human HepG2 cells assessed as necrotic cells at 10 uM incubated for 48 hrs by Annexin V/PI staining based flow cytometry method (reference value: 0.57%); assay type: functional
HepG2 [14] = assay: Induction of apoptosis in human HepG2 cells assessed as early apoptotic cells at 20 uM incubated for 48 hrs by Annexin V/PI staining based flow cytometry method (reference value: 3.31%); assay type: functional
ECa-109 cell line [15] = assay: Induction of apoptosis in human EC109 cells assessed as necrotic cells at 10 uM incubated for 48 hrs by Annexin V/PI staining based flow cytometry method (reference value: 0.73%); assay type: functional
ECa-109 cell line [16] = assay: Induction of cell cycle arrest in human EC109 cells assessed as downregulation of cyclin D1 protein expression by Western blotting analysis; assay type: functional, cell-based; details: dose 2.5-20 µM, DDE = dose-dependent effect
HepG2 [17] = assay: Antitumor activity against human HepG2 cells xenografted in BALB/c athymic nude mouse assessed as tumor growth inhibition at 20 mg/kg, ip administered daily for 24 days relative to control; assay type: functional; details: HepG2, 576 h, time 24 day, read-out: TGI

Sequence of Signal transducer and activator of transcription 3 (Homo sapiens) (P40763 whole entry): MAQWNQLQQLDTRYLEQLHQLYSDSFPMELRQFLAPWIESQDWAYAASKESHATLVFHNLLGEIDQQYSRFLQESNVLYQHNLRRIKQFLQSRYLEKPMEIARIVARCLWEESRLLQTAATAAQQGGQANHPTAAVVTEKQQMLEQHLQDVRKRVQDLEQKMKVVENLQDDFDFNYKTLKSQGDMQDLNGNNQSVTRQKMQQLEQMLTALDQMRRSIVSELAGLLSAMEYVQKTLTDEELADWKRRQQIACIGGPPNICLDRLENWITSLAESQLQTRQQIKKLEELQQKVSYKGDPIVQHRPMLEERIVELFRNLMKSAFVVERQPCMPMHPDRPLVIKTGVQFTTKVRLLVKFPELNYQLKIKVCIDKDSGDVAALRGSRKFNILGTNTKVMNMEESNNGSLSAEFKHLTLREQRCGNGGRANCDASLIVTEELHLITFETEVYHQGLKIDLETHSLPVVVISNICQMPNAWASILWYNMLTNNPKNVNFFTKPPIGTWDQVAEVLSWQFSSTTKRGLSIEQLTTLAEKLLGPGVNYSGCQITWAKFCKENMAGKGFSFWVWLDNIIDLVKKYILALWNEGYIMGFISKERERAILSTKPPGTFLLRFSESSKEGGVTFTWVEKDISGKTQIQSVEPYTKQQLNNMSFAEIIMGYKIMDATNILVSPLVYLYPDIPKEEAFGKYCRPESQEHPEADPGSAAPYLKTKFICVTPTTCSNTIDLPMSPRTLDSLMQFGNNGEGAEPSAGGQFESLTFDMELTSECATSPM

For `CCCn1c(-c2cccc(OC)c2)nc2cc3nc(-c4cccc(OC)c4)n(CCC)c3cc21`, the inhibition [1] was “Dde”, the Activity (HepG2 [2]) was 8.44% and the Activity (HepG2 [3]) was 1.54%. For the same compound, the Activity [4] was “Non-Toxic”, the Activity (ECa-109 cell line [5]) was 17.2% and the inhibition (ECa-109 cell line [6]) was “Dde”. It also gave a viability at 20 µM (ECa-109 cell line [7]) of 46.8%, a viability at 10 µM (HepG2 [8]) of 39.5% and an Activity (ECa-109 cell line [9]) of 18.2%. For the same compound, the inhibition [10] was “Dde”, the inhibition [11] was “Dde” and the Activity (ECa-109 cell line [12]) was 2.27%. The Activity (HepG2 [13]) was 1.49%, the Activity (HepG2 [14]) was 29.9% and the Activity (ECa-109 cell line [15]) was 1.1%. The Activity (ECa-109 cell line [16]) was “Dde” and the inhibition in vivo at 20 mg/kg (HepG2 [17]) was 42.5%.

Source: ChEMBL document CHEMBL5143695, “Benzobis(imidazole) derivatives as STAT3 signal inhibitors with antitumor activity” (Bioorg Med Chem, 2022)
